Experiments:
Type in all cases: in vivo
[1] = system: Echinochloa oryzacola Vasing.; test: Test Example 1: herbicidal activity, application before weed generation in submerged conditions (symbol A); conditions: application herbicide amount 320 g/ha
Outline: (§1)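 Mixed weed seeds sown in alluvial soil under 4 cm of water, with rice seedlings at the 2.5-leaf stage added. Same-day treatment: emulsion diluted to a set herbicide amount onto the water. Three weeks at 25–30 °C, then graded on a six-step scale.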

Scirpus juncoides = test: Test Example 1: herbicidal activity, application before weed generation in submerged conditions (symbol B); conditions: application herbicide amount 320 g/ha
Outline: as §1

Monochoria vaginalis = test: Test Example 2: herbicidal activity, application during weed generation in submerged conditions (symbol C); conditions: Table 23; application herbicide amount 320 g/ha; grade 0-5 by criteria of Test Example 1
Outline: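 Treatment timing was the one- to two-leaf stage, with diluted emulsifiable compound dropped onto the paddy water (depth 4 cm) over alluvial soil. All three species grew from a mixed sowing in a 25° C. to 30° C. greenhouse. Injury was judged by eye 3 weeks on.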

Leptochloa chinensis = test: Test Example 3: herbicidal effect by foliage application, Wagner pot (symbol D); conditions: application herbicide amount 320 g/ha; for D (Leptochloa chinensis) herbicidal effect grade: Table 24
Outline: (§2)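 The compound, formulated as an emulsion and diluted with water to a predetermined rate, is applied uniformly to leaves of two-week-old seedlings growing in submerged alluvial soil at 25–30 °C. Rice is included. Each plant is assessed 3 weeks later using defined criteria.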

Cyperus difformis = test: Test Example 3: herbicidal effect by foliage application, Wagner pot (symbol E); conditions: application herbicide amount 320 g/ha; for E herbicidal effect grade: Table 24
Outline: as §2

Digitaria ciliaris [2] = test: Test Example 4: herbicidal effect by soil treatment (symbol F); conditions: application herbicide amount 320 g/ha
Outline: (§3)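 Seeds were sown in sterilized diluvial soil, covered with about 1.5 cm of soil, and the soil surface was sprayed with a water-diluted emulsion of the compound at a predetermined rate. Plants grew in a greenhouse at 25° C. to 30° C.; effects were scored visually 3 weeks after application.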

Setaria viridis [3] = test: Test Example 4: herbicidal effect by soil treatment (symbol G); conditions: application herbicide amount 320 g/ha
Outline: as §3

[4] = system: Echinochloa crus-galli var. crus-galli; test: Test Example 4: herbicidal effect by soil treatment (symbol H); conditions: application herbicide amount 320 g/ha
Outline: as §3

beet = test: Test Example 4: effect on crop by soil treatment (symbol f); conditions: application herbicide amount 320 g/ha
Outline: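 Plants grew in a 25° C. to 30° C. greenhouse after spot-sowing of seeds, including beet, rapeseed, wheat and rice, into sterilized diluvial soil under roughly 1.5 cm of cover soil.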

Digitaria ciliaris [5] = test: Test Example 5: herbicidal effect by foliage application, plastic box (symbol F); conditions: 320 g/ha, 3 weeks after application
Outline: (§4)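 Leaf-applied emulsion, water-diluted to a preset herbicide dose, on two-week-old seedlings raised in a 25° C. to 30° C. greenhouse; injury rated at 3 weeks using earlier criteria.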

Setaria viridis [6] = test: Test Example 5: herbicidal effect by foliage application, plastic box (symbol G); conditions: 320 g/ha, 3 weeks after application
Outline: as §4

Avena fatua = test: Test Example 5: herbicidal effect by foliage application, plastic box (symbol I); conditions: 320 g/ha, 3 weeks after application
Outline: as §4

Stellaria media = test: Test Example 5: herbicidal effect by foliage application, plastic box (symbol P); conditions: 320 g/ha, 3 weeks after application
Outline: as §4

SMILES | Herbicidal effect grade, A: Echinochloa oryzacola Vasing. [1] | Herbicidal effect grade, B: Scirpus juncoides (Scirpus juncoides) | Herbicidal effect grade, C: Monochoria vaginalis (Monochoria vaginalis) | herbicidal effect on D (Leptochloa chinensis), grade 0-5 (Leptochloa chinensis) | herbicidal effect on E, grade 0-5 (Cyperus difformis) | F (Digitaria ciliaris) herbicidal effect grade (Digitaria ciliaris [2]) | G (Setaria viridis) herbicidal effect grade (Setaria viridis [3]) | H (Echinochloa crus-galli var. crus-galli) herbicidal effect grade [4] | f (beet) effect on crop grade (beet) | F: Digitaria ciliaris, herbicidal effect grade (Digitaria ciliaris [5]) | G: Setaria viridis, herbicidal effect grade (Setaria viridis [6]) | I: Avena fatua, herbicidal effect grade (Avena fatua) | P: Stellaria media, herbicidal effect grade (Stellaria media) | Herbicidal effect grade, F: Digitaria ciliaris (Digitaria ciliaris [2]) | Herbicidal effect grade, G: Setaria viridis (Setaria viridis [3]) | Herbicidal effect grade, H: Echinochloa crus-galli var. crus-galli [4] | Effect on crop grade, f: beet (beet) | D (Leptochloa chinensis) herbicidal effect grade (Leptochloa chinensis) | E herbicidal effect grade (Cyperus difformis) | further results
C#CCON=C(C)CC1CC(O)=C(c2c(C)cc(C)cc2C)C1=O (stereo not drawn) [1-019] | 5 (Herbicidal ratio of 90% or more (almost completely withered)) | 5 (Herbicidal ratio of 90% or more (almost completely withered)) | 2 (Herbicidal ratio of 20% or higher and lower than 40%) | 5 (Herbicidal ratio of 90% or more (almost completely withered)) | 5 (Herbicidal ratio of 90% or more (almost completely withered)) | 5 (Herbicidal ratio of 90% or more (almost completely withered)) | 3 (Herbicidal ratio of 40% or higher and lower than 70%) | 5 (Herbicidal ratio of 90% or more (almost completely withered)) | 0 (Herbicidal ratio of 5% or lower (almost no effect)) | 5 (Herbicidal ratio of 90% or more (almost completely withered)) | 5 (Herbicidal ratio of 90% or more (almost completely withered)) | 5 (Herbicidal ratio of 90% or more (almost completely withered)) | 4 (Herbicidal ratio of 70% or higher and lower than 90%) | – | – | – | – | – | – | –
CC(CC1CC(O)=C(c2c(C)cc(C)cc2C)C1=O)=NOCc1ccccn1 (stereo not drawn) [1-022] | 5 (Herbicidal ratio of 90% or more (almost completely withered)) | 5 (Herbicidal ratio of 90% or more (almost completely withered)) | 3 (Herbicidal ratio of 40% or higher and lower than 70%) | 5 (Herbicidal ratio of 90% or more (almost completely withered)) | 4 (Herbicidal ratio of 70% or higher and lower than 90%) | 5 (Herbicidal ratio of 90% or more (almost completely withered)) | 3 (Herbicidal ratio of 40% or higher and lower than 70%) | 5 (Herbicidal ratio of 90% or more (almost completely withered)) | 3 (Herbicidal ratio of 40% or higher and lower than 70%) | 5 (Herbicidal ratio of 90% or more (almost completely withered)) | 5 (Herbicidal ratio of 90% or more (almost completely withered)) | 5 (Herbicidal ratio of 90% or more (almost completely withered)) | 3 (Herbicidal ratio of 40% or higher and lower than 70%) | – | – | – | – | – | – | –
COC(=O)CON=C(C)CC1CC(O)=C(c2c(C)cc(C)cc2C)C1=O (stereo not drawn) [1-023] | 4 (Herbicidal ratio of 70% or higher and lower than 90%) | 0 (Herbicidal ratio of 5% or lower (almost no effect)) | 0 (Herbicidal ratio of 5% or lower (almost no effect)) | 5 (Herbicidal ratio of 90% or more (almost completely withered)) | 0 (Herbicidal ratio of 5% or lower (almost no effect)) | 4 (Herbicidal ratio of 70% or higher and lower than 90%) | 3 (Herbicidal ratio of 40% or higher and lower than 70%) | 3 (Herbicidal ratio of 40% or higher and lower than 70%) | 0 (Herbicidal ratio of 5% or lower (almost no effect)) | 2 (Herbicidal ratio of 20% or higher and lower than 40%) | 1 (Herbicidal ratio of 5% or higher and lower than 20%) | 1 (Herbicidal ratio of 5% or higher and lower than 20%) | 0 (Herbicidal ratio of 5% or lower (almost no effect)) | – | – | – | – | – | – | –
CC(=O)CC1CC(O)=C(c2c(C)cc(Br)cc2C)C1=O (stereo not drawn) [7-002] | 0 (Herbicidal ratio of 5% or lower (almost no effect)) | 0 (Herbicidal ratio of 5% or lower (almost no effect)) | 0 (Herbicidal ratio of 5% or lower (almost no effect)) | 5 (Herbicidal ratio of 90% or more (almost completely withered)) | 3 (Herbicidal ratio of 40% or higher and lower than 70%) | – | – | – | – | – | – | – | – | 5 (Herbicidal ratio of 90% or more (almost completely withered)) | 4 (Herbicidal ratio of 70% or higher and lower than 90%) | 5 (Herbicidal ratio of 90% or more (almost completely withered)) | 0 (Herbicidal ratio of 5% or lower (almost no effect)) | – | – | F: Digitaria ciliaris, herbicidal effect (criteria of Test Example 1) (Digitaria ciliaris [5]): 5 (Herbicidal ratio of 90% or more (almost completely withered)); G: Setaria viridis, herbicidal effect (criteria of Test Example 1) (Setaria viridis [6]): 3 (Herbicidal ratio of 40% or higher and lower than 70%); I: Avena fatua, herbicidal effect (criteria of Test Example 1) (Avena fatua): 4 (Herbicidal ratio of 70% or higher and lower than 90%); P: Stellaria media, herbicidal effect (criteria of Test Example 1) (Stellaria media): 0 (Herbicidal ratio of 5% or lower (almost no effect))
CON=C(C)C(=O)C1CC(O)=C(c2c(C)cc(C)cc2C)C1=O (stereo not drawn) [8-002] | 0 (Herbicidal ratio of 5% or lower (almost no effect)) | 0 (Herbicidal ratio of 5% or lower (almost no effect)) | 0 (Herbicidal ratio of 5% or lower (almost no effect)) | – | – | – | – | – | – | 0 (Herbicidal ratio of 5% or lower (almost no effect)) | 0 (Herbicidal ratio of 5% or lower (almost no effect)) | 3 (Herbicidal ratio of 40% or higher and lower than 70%) | 0 (Herbicidal ratio of 5% or lower (almost no effect)) | 3 (Herbicidal ratio of 40% or higher and lower than 70%) | 0 (Herbicidal ratio of 5% or lower (almost no effect)) | 2 (Herbicidal ratio of 20% or higher and lower than 40%) | 0 (Herbicidal ratio of 5% or lower (almost no effect)) | 0 (Herbicidal ratio of 5% or lower (almost no effect)) | 0 (Herbicidal ratio of 5% or lower (almost no effect)) | –
CON=C(C)C(=NOC)C1CC(O)=C(c2c(C)cc(C)cc2C)C1=O (stereo not drawn) [8-003] | 0 (Herbicidal ratio of 5% or lower (almost no effect)) | 0 (Herbicidal ratio of 5% or lower (almost no effect)) | 0 (Herbicidal ratio of 5% or lower (almost no effect)) | – | – | – | – | – | – | 0 (Herbicidal ratio of 5% or lower (almost no effect)) | 0 (Herbicidal ratio of 5% or lower (almost no effect)) | 0 (Herbicidal ratio of 5% or lower (almost no effect)) | 0 (Herbicidal ratio of 5% or lower (almost no effect)) | 0 (Herbicidal ratio of 5% or lower (almost no effect)) | 0 (Herbicidal ratio of 5% or lower (almost no effect)) | 0 (Herbicidal ratio of 5% or lower (almost no effect)) | 0 (Herbicidal ratio of 5% or lower (almost no effect)) | 0 (Herbicidal ratio of 5% or lower (almost no effect)) | 0 (Herbicidal ratio of 5% or lower (almost no effect)) | –

— patent publication US11000033B2, “Ketone or oxime compound, and herbicide” (NISSAN CHEMICAL CORPORATION, priority 2014, dated 2021)
